Reference: ChEMBL document CHEMBL5316324, “Discovery, Characterization, and Engineering of LvIC, an α4/4-Conotoxin That Selectively Blocks Rat α6/α3β4 Nicotinic Acetylcholine Receptors” (J Med Chem, 2023)
The source made the active and inactive calls. The rule behind the calls is not given here. Peptide text beside a SMILES is read from it.

Assays:
[1] = molecular target: T1, Neuronal acetylcholine receptor; alpha3/beta4 (Rattus norvegicus) (UniProt P04757+P12392); test: Inhibition of rat alpha3beta4 nAChR expressed in Stage V-VI Xenopus laevis Oocytes assessed as inhibition of acetylcholine-induced current at 10 uM in presence of acetylcholine by electrophysiological recording; type: cell-based; conditions: Oocyte
Rattus norvegicus [2] = species: Rattus norvegicus; test: Inhibition of rat alpha6/alpha3 E195A mutant beta4 nAChR expressed in Stage V-VI Xenopus laevis Oocytes assessed as acetylcholine-induced current response at 1 uM in presence of 100 uM acetylcholine by electrophysiological recording relative to control; type: cell-based
Oocyte [3] = test: Inhibition of rat alpha6/alpha3 D152A mutant beta4 nAChR expressed in Stage V-VI Xenopus laevis Oocytes assessed as acetylcholine-induced current response at 1 uM in presence of 100 uM acetylcholine by electrophysiological recording relative to control; type: cell-based; design: scale not given: the % may be the effect or the level left
[4] = molecular target: Neuronal acetylcholine receptor subunit alpha-7 (Rattus norvegicus) (UniProt Q05941); test: Inhibition of rat alpha7 nAChR expressed in Stage V-VI Xenopus laevis Oocytes assessed as inhibition of acetylcholine-induced current at 10 uM in presence of acetylcholine by electrophysiological recording relative to control; type: cell-based; conditions: Oocyte
[5] = molecular target: T2, Nicotinic acetylcholine receptor alpha6/alpha3/beta4 (Rattus norvegicus) (UniProt P04757+P12392+P43143); test: (§1) Inhibition of rat alpha6/alpha3beta4 nAChR expressed in Stage V-VI Xenopus laevis Oocytes assessed as inhibition of acetylcholine-induced current at 10 uM in presence of acetylcholine by electrophysiological recording; type: cell-based; conditions: Oocyte
[6] = molecular target: Neuronal acetylcholine receptor; alpha2/beta2 (Rattus norvegicus, UniProt P12389+P12390); test: Inhibition of rat alpha2/beta2 nAChR expressed in Stage V-VI Xenopus laevis Oocytes assessed as inhibition of acetylcholine-induced current in presence of acetylcholine by electrophysiological recording; type: cell-based, Oocyte
[7] = molecular target: Neuronal acetylcholine receptor; alpha2/beta4 (Rattus norvegicus, UniProt P12389+P12392); test: Inhibition of rat alpha2/beta4 nAChR expressed in Stage V-VI Xenopus laevis Oocytes assessed as inhibition of acetylcholine-induced current in presence of acetylcholine by electrophysiological recording; type: cell-based, Oocyte
[8] = Inhibition of rat alpha6/alpha3 D152A mutant beta4 nAChR expressed in Stage V-VI Xenopus laevis Oocytes assessed as inhibition of acetylcholine-induced current in presence of acetylcholine by electrophysiological recording; type: cell-based; conditions: Oocyte
[9] = Inhibition of rat alpha6/alpha3beta4 I166S mutant nAChR expressed in Stage V-VI Xenopus laevis Oocytes assessed as inhibition of acetylcholine-induced current in presence of acetylcholine by electrophysiological recording; type: cell-based; conditions: Oocyte
[10] = molecular target: Nicotinic acetylcholine receptor alpha1/beta1/epsilon/delta (Mus musculus) (UniProt P04756+P09690+P02716+P20782); test: Inhibition of mouse alpha1/beta1deltaepsilon nAChR expressed in Stage V-VI Xenopus laevis Oocytes assessed as inhibition of acetylcholine-induced current at 10 uM in presence of acetylcholine by electrophysiological recording relative to control; type: cell-based; conditions: Oocyte
[11] = molecular target: T2, Nicotinic acetylcholine receptor alpha6/alpha3/beta4 (Rattus norvegicus); test: as §1, with “current by measuring recovery time” for “current”, “uM preincubated with compound for 5 mins followed by washout” for “uM”; type: cell-based; conditions: Oocyte
[12] = Inhibition of rat alpha6/alpha3beta4 E34M mutant nAChR expressed in Stage V-VI Xenopus laevis Oocytes assessed as inhibition of acetylcholine-induced current in presence of acetylcholine by electrophysiological recording; type: cell-based; conditions: Oocyte
Oocyte [13] = test: (§2) Inhibition of rat alpha6/alpha3 T59K mutant beta4 nAChR expressed in Stage V-VI Xenopus laevis Oocytes assessed as inhibition of acetylcholine-induced current by measuring recovery time at 10 uM preincubated with compound for 5 mins followed by washout in presence of acetylcholine by electrophysiological recording; type: cell-based
[14] = molecular target: Nicotinic acetylcholine receptor alpha1/beta1/epsilon/delta (Mus musculus, UniProt P02716+P04756+P09690+P20782); test: Inhibition of mouse alpha1/beta1deltaepsilon nAChR expressed in Stage V-VI Xenopus laevis Oocytes assessed as inhibition of acetylcholine-induced current in presence of acetylcholine by electrophysiological recording; type: cell-based, Oocyte
[15] = Inhibition of rat alpha6/alpha3 E195A mutant beta4 nAChR expressed in Stage V-VI Xenopus laevis Oocytes assessed as inhibition of acetylcholine-induced current in presence of acetylcholine by electrophysiological recording; type: cell-based; conditions: Oocyte
[16] = Inhibition of rat alpha6/alpha3beta4 K57T mutant nAChR expressed in Stage V-VI Xenopus laevis Oocytes assessed as inhibition of acetylcholine-induced current in presence of acetylcholine by electrophysiological recording; type: cell-based; conditions: Oocyte
[17] = molecular target: T1, Neuronal acetylcholine receptor; alpha3/beta4 (Rattus norvegicus); test: Inhibition of rat alpha3/beta4 nAChR expressed in Stage V-VI Xenopus laevis Oocytes assessed as inhibition of acetylcholine-induced current at 10 uM in presence of acetylcholine by electrophysiological recording relative to control; type: cell-based; conditions: Oocyte
Rattus norvegicus [18] = species: Rattus norvegicus; test: Selectivity index, ratio of IC50 for rat alpha6/alpha3beta4 E34M mutant nAChR expressed in Stage V-VI Xenopus laevis oocytes to IC50 for rat alpha6/alpha3beta4 nAChR expressed in Stage V-VI Xenopus laevis Oocytes by electrophysiological recording; type: cell-based
Rattus norvegicus [19] = species: Rattus norvegicus; test: Selectivity index, ratio of IC50 for rat alpha6/alpha3 D152A mutant beta4 nAChR expressed in Stage V-VI Xenopus laevis oocytes to IC50 for rat alpha6/alpha3beta4 nAChR expressed in Stage V-VI Xenopus laevis Oocytes by electrophysiological recording; type: cell-based
Oocyte [20] = test: Inhibition of rat alpha6/alpha3 D152A mutant beta4 nAChR expressed in Stage V-VI Xenopus laevis Oocytes assessed as acetylcholine-induced current response at 100 nM in presence of 100 uM acetylcholine by electrophysiological recording relative to control; type: cell-based; design: scale not given: the % may be the effect or the level left
Oocyte [21] = test: as §2, with “E195A” for “T59K”; type: cell-based
[22] = molecular target: T2, Nicotinic acetylcholine receptor alpha6/alpha3/beta4 (Rattus norvegicus); test: Inhibition of rat alpha6/alpha3beta4 nAChR expressed in Stage V-VI Xenopus laevis Oocytes assessed as acetylcholine-induced current response at 100 nM in presence of 100 uM acetylcholine by electrophysiological recording relative to control; type: cell-based; conditions: Oocyte
[23] = molecular target: Nicotinic acetylcholine receptor alpha9/alpha10 (Rattus norvegicus, UniProt P43144+Q9JLB5); test: Inhibition of rat alpha9/alpha10 nAChR expressed in Stage V-VI Xenopus laevis Oocytes assessed as inhibition of acetylcholine-induced current in presence of acetylcholine by electrophysiological recording; type: cell-based, Oocyte
[24] = molecular target: Nicotinic acetylcholine receptor alpha6/alpha3/beta2/beta3 (Rattus norvegicus, UniProt P04757+P12390+P12391+P43143); test: Inhibition of rat alpha6/alpha3beta2beta3 nAChR expressed in Stage V-VI Xenopus laevis Oocytes assessed as inhibition of acetylcholine-induced current in presence of acetylcholine by electrophysiological recording; type: cell-based, Oocyte
Oocyte [25] = test: Inhibition of rat alpha6/alpha3 E34M mutant beta4 nAChR expressed in Stage V-VI Xenopus laevis Oocytes assessed as inhibition of acetylcholine-induced current by measuring recovery at 10 uM preincubated with compound for 5 mins followed by measured after 20 mins washout by electrophysiological recording; type: cell-based; design: scale not given: the % may be the effect or the level left; conditions: time 25.0 min
[26] = molecular target: Nicotinic acetylcholine receptor alpha6/alpha3/beta2/beta3 (Rattus norvegicus) (UniProt P04757+P12390+P12391+P43143); test: Inhibition of rat alpha6/alpha3beta2beta3 nAChR expressed in Stage V-VI Xenopus laevis Oocytes assessed as inhibition of acetylcholine-induced current at 10 uM in presence of acetylcholine by electrophysiological recording relative to control; type: cell-based; conditions: Oocyte

Neuronal acetylcholine receptor subunit alpha-7 (Rattus norvegicus), sequence (Q05941 whole entry): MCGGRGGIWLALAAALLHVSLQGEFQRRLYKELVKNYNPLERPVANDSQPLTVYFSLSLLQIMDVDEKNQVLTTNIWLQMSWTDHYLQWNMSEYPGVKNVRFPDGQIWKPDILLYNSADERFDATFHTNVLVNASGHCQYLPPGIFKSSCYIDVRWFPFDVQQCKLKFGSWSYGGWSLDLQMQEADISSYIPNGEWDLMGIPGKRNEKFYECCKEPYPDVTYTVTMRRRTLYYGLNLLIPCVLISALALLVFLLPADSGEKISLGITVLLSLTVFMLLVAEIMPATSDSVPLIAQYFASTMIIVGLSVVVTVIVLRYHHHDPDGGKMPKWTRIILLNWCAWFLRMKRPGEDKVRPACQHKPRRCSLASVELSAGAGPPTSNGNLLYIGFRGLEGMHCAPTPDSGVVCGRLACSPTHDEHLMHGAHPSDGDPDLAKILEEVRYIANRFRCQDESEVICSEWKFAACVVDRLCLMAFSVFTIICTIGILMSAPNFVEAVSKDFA
Nicotinic acetylcholine receptor alpha1/beta1/epsilon/delta, sequence (P04756 whole entry): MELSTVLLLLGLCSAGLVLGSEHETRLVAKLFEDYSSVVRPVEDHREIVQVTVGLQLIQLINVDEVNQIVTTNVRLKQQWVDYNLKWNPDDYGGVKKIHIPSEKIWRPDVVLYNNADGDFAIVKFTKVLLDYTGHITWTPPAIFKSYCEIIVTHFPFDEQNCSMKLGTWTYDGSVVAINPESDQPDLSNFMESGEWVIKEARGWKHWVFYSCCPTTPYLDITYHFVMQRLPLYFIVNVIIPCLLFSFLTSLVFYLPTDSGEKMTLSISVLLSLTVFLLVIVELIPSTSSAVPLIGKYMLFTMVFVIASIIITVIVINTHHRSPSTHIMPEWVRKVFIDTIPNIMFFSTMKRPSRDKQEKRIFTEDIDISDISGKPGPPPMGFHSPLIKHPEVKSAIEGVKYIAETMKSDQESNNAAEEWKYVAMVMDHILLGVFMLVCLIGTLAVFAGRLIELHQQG
Nicotinic acetylcholine receptor alpha1/beta1/epsilon/delta, sequence (P09690 whole entry): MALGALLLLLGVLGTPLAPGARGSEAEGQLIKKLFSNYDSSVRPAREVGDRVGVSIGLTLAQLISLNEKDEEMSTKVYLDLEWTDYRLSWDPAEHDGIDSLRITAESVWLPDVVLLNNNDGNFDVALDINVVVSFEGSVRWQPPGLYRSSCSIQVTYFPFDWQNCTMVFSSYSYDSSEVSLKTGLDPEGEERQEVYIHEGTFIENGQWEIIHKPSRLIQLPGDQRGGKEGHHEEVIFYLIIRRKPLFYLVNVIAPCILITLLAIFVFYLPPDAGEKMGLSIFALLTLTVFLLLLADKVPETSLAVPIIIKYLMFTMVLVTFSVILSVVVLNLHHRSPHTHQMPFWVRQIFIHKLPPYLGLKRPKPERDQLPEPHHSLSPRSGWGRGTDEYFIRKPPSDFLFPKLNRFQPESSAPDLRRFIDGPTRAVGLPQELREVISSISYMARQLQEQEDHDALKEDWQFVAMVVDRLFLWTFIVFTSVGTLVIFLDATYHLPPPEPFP
Nicotinic acetylcholine receptor alpha1/beta1/epsilon/delta, sequence (P02716 whole entry): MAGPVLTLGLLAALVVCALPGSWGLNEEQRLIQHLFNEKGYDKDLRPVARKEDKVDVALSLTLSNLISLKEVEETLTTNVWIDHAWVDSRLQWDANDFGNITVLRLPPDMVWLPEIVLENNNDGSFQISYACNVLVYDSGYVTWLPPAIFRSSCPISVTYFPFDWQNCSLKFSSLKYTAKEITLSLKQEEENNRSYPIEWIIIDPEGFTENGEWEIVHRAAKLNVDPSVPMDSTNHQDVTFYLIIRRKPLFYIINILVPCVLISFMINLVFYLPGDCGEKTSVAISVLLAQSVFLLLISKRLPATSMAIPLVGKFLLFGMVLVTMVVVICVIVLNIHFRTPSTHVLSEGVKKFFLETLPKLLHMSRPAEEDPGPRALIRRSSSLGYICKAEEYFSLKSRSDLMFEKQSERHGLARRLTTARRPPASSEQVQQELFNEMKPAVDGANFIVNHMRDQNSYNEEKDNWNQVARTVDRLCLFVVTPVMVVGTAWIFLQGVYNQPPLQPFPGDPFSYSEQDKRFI
Nicotinic acetylcholine receptor alpha1/beta1/epsilon/delta, sequence (P20782 whole entry): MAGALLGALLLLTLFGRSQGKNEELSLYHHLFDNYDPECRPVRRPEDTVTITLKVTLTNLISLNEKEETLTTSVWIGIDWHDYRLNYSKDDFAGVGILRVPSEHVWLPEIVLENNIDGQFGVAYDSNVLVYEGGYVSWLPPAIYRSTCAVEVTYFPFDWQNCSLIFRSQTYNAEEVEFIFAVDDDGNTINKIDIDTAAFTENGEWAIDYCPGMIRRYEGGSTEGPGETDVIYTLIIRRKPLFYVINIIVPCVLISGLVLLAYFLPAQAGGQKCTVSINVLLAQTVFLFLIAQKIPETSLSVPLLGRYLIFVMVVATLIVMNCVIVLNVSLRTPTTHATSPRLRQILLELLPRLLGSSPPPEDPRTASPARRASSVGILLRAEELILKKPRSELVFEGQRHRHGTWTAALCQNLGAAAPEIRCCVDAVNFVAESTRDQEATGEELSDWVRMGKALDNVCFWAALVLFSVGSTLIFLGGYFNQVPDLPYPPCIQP
Neuronal acetylcholine receptor; alpha2/beta4, sequence (P12389 whole entry): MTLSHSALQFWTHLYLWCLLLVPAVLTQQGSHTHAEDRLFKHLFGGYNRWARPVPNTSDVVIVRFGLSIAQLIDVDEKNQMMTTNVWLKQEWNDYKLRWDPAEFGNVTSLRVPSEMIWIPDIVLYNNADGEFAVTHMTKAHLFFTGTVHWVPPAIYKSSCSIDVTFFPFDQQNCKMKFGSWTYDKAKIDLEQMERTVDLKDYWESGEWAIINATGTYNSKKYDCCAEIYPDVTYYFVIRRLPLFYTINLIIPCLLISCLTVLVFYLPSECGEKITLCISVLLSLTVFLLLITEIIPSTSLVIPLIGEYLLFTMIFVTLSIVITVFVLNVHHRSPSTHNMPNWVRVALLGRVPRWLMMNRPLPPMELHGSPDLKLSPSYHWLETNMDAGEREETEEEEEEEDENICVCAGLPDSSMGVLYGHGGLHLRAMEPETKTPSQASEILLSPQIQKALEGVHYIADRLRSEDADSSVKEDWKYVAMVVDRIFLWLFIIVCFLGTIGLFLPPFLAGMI
Neuronal acetylcholine receptor; alpha2/beta4, sequence (P12392 whole entry): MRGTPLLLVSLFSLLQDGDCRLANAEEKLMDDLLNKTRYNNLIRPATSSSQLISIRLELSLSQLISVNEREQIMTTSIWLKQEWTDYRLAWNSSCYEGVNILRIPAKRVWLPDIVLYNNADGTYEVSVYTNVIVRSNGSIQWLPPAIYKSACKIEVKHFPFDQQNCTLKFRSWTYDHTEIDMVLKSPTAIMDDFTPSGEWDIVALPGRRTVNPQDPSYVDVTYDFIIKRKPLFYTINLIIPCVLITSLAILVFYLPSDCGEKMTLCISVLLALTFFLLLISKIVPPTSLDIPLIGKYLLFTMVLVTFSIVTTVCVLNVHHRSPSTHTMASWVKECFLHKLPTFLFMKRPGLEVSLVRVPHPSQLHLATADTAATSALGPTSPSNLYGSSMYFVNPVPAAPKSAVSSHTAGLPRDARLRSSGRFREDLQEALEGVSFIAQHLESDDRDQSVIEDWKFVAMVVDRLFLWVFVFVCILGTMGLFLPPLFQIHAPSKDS
Neuronal acetylcholine receptor; alpha2/beta2, sequence (P12389 whole entry): as the sequence (P12389 whole entry) above
Neuronal acetylcholine receptor; alpha2/beta2, sequence (P12390 whole entry): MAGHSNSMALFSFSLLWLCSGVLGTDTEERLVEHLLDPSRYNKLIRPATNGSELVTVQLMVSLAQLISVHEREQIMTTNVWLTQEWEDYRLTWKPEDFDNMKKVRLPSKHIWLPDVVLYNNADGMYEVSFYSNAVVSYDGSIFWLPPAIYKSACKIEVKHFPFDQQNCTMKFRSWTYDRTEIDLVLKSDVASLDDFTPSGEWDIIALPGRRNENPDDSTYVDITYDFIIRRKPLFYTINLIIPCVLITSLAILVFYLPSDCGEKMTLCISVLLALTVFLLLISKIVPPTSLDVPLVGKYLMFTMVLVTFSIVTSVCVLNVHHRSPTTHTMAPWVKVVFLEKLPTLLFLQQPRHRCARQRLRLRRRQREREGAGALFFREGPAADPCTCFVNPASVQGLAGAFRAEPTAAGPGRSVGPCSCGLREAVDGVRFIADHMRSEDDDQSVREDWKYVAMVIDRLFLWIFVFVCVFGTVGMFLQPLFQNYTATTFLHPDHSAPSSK

CC(C)[C@H](NC(=O)[C@@H]1CCCN1C(=O)[C@H](CC(N)=O)NC(=O)[C@H](C)NC(=O)[C@H](CS)NC(=O)[C@H](CS)NC(=O)[C@@H](N)CCCNC(=N)N)C(=O)N[C@@H](CS)C(=O)N[C@@H](CC(N)=O)C(=O)NCC(=O)N[C@@H](CCCCN)C(=O)N[C@@H](Cc1cnc[nH]1)C(=O)N[C@@H](CS)C(N)=O (H-RCCANPVCNGKHC-NH2)
inhibition [1]: inactive
inhibition (Rattus norvegicus [2]): 49.3%
Activity (Oocyte [3]): 63.8%
inhibition [4]: < 50%
inhibition [5]: Active
IC50 [6]: > 10 µM
IC50 [7]: > 10 µM
IC50 [8]: 0.47 µM
IC50 [9]: 0.0508 µM
inhibition [10]: < 50%
TIME [11]: 0.333 h
IC50 [12]: 0.0185 µM
TIME (Oocyte [13]): 0.0333 h
IC50 [14]: > 10 µM
IC50 [15]: 0.959 µM
IC50 [16]: 0.134 µM
inhibition [17]: < 50%
Ratio IC50 (Rattus norvegicus [18]): 0.97
Ratio IC50 (Rattus norvegicus [19]): 24.7
Activity (Oocyte [20]): 22.6%
TIME (Oocyte [21]): 0.0167 h
inhibition [22]: 85.5%
IC50 [23]: > 10 µM
IC50 [24]: > 10 µM
Activity (Oocyte [25]): 66.3%
inhibition [26]: < 50%
